From PMC11435220, “Anticancer Activity of Imidazolyl Gold(I/III) Compounds in Non-Small Cell Lung Cancer Cell Lines” (Pharmaceuticals, 2024)

Key:
A549 = test: MTT viability assay, A549; type: cell-based, human; conditions: mean ± span, 48 h treatment, cell line with KRAS mutation
Procedure: (§1) NSCLC cell lines were obtained from the Hamon Center for Therapeutic Oncology Research (UT Southwestern Medical Center). IMR-90 human lung fibroblasts were from ATCC (CC-186). All cell lines were maintained and treated in RPMI medium (Cytiva (Shanghai, China), #SH30027), supplemented with 10% heat-inactivated FBS (Millipore Sigma (Darmstadt, Germany), F0394).
(§2) 5000–10,000 cells/0.1 mL/well were seeded in 96-well plates to achieve 70% confluence after 24 h. All drug stock solutions were prepared fresh in DMSO at a concentration of 10 mM. The day after cell plating, we added 0.1 mL of medium containing the appropriate drug dilutions. After 48 h of treatment, 10 μL of MTT solution (5 mg/mL) was added to each well. After 4 h incubation, the medium was aspirated, and the formazan salts dissolved in 200 μL DMSO/well for 10 min at 37 °C. The absorbance was read at 570 nm (OD 570 nm). Data are represented as mean ± SD of two independent experiments.
(§3) Statistical and data analysis was performed using GraphPad Prism (v10). IC50 values were calculated using a three-parameter non-linear regression model with log(inhibitor) vs. response. For the TxrR activity statistics, the groups were compared using a two-way ANOVA followed by Dunnett’s multiple comparisons with alpha = 0.05. The correlation between IC50 values and TxrR activity was achieved using Pearson correlation with alpha = 0.05.

[1] = Solution stability by UV-visible spectra over time; type: physicochemical; conditions: for percent concentration reduction estimated from UV spectra: 100 µM solution, within an hour; for stability in solution: UV-visible spectra over time, DMSO, methanol, PBS buffered solutions
Procedure: Stability studies were led by acquiring UV−visible spectra of 100 µM DMSO or methanol solutions of compounds 1∓8 over time (Figures S19–S29 in Supplementary Materials). […] The stability of NHC-AuX3 complexes (with X = Cl, compounds 1 and 2, with X = Br, compounds 5 and 6) was affected by the nature of both the substituents on the imidazolyl ligand and of the halide, showing a small decrease of the UV bands maxima in an hour. By analyzing the spectral data of compounds 1 and 2, a percent concentration reduction of about 4–5% was estimated within an hour, grading them eligible for biological tests. The partial instability may be attributed to the formation of cationic bis-carbeneAuCl2 species (Equation (1)), with the [bis-carbeneAuX2]^+ and the respective AuX2^−; these ions were actually detected as positive and negative ions in the ESI-MS spectra (see Figures S12 and S13). […] Additionally, the (+)ESI MS spectrum of the acetonitrile solution of compound 6 is particularly rich in positive ions (Figure S16). As concerns the mono-/bis-carbene formation, it is likely initiated by the large trans effect of the carbene ligands, which induces the chemical lability on the trans halide, triggers […], the formation of bis-carbeneAu(III) species, and AuX2^− or AuX4^− anions:2[NHC-AuX3] ⇔ [[(NHC)2AuX2] [AuX2^−] + 2X(1) […]
The stability of the samples 1-8 in DMSO solution was assayed by UV-visible spectroscopy. Spectra were acquired using the Shimadzu UV-2700i spectrophotometer, equipped with the Shimadzu CPS-100 Peltier, at 293 K. Unless diversely specified, 100 µM DMSO solutions of the 1-8 compounds were prepared and spectra were acquired each 10 minutes for a total of 60 minutes. The spectra obtained are reported as following.
Figure S19. UV-Visible Spectra acquired for complex 1.
Figure S20. UV-Visible Spectra acquired for complex 2. […]

H460 = test: MTT viability assay, H460; type: cell-based, human; conditions: mean ± span, 48 h treatment, cell line with KRAS mutation
Procedure: as §1, §2, §3

H522 = test: MTT viability assay, H522; type: cell-based, human; conditions: mean ± span, 48 h treatment, cell line without KRAS mutation
Procedure: as §1, §2, §3

HCC-44 = test: MTT viability assay, HCC-44; type: cell-based, human; conditions: mean ± span, 48 h treatment, cell line with KRAS mutation
Procedure: as §1, §2, §3

[2] = tested on: TrxR in A549 cell lysates; test: Thioredoxin reductase activity in lysates of treated A549 cells; type: cell-based, human; conditions: for TrxR activity reduction / inhibition: A549, 24 h treatment, stated for both cell lines; for Mean Diff. TrxR activity vs. veh: A549 lysate, 24 h treatment at 5 μM
Procedure: (§4) The enzymatic activity of TrxR in the A549 and H522 cell lysates was measured using the TrxR assay Kit (Abcam ab83463) following the manufacturer’s instructions. This kit is based on the TxrR-mediated reduction of the colorless DTNB into TNB2—(yellow). Briefly, cells were plated to reach 70% confluence on a 100-mm dish in one day. They were treated with 5 μM of the gold compounds or the equivalent quantity of DMSO for 24 h. Then, cells were washed in PBS 1X, detached, and lysed in 100 μL of cold TrxR assay buffer supplemented with the Proteinase Inhibitor Cocktail. 20 μg and 40 μg of total proteins were used for the A549 and the H522, respectively. The DTNB substrate was added to samples with or without TrxR inhibitor (provided with the kit) in 96-well plates. The OD412 was measured soon after the substrate addition (A1) and then after 25, 60, 90, and 110 min (An) at 25 °C using a FLUOstar Omega Microplate Reader (BGM Labtech, Chicago, IL, USA). Data analysis was performed following the manufacturer’s instructions. The OD of TNB2, generated by TrxR in every condition, is:ΔA412 nm = (AnAB − AnINH) − (AB − A1INH) where AB is the assay buffer, and INH is the inhibitor. The TrxR activity is:(2) ΔB/Tn−T1×mg of protein lysate×sample dilution factor=(nmol/min)/mg=mU/mg where ΔB is the TNB amount calculated applying ΔA412 nm to TNB standard curve (in nmol), T1 is the time of the first reading (A1AB, and A1INH) (in min), Tn is the time of the second reading (AnAB and AnINH) (in min). The residual TxrR activity (%) was calculated by normalizing the TxrR activity for each compound with the matching vehicle values at every n time point.
as §3

H1355 = test: MTT viability assay, H1355; type: cell-based, human; conditions: mean ± span, 48 h treatment, cell line with KRAS mutation
Procedure: as §1, §2, §3

[3] = tested on: human NSCLC cell lines without KRAS mutations; test: MTT assay, average across NSCLC cell lines without KRAS mutations; type: cell-based; conditions: average across cell lines without KRAS mutations (H522, H661, H1395, H1993), 48 h, read-out: IC50 * averaged values
Procedure: as §1, §2, §3

[4] = tested on: TrxR in H522 cell lysates; test: Thioredoxin reductase activity in lysates of treated H522 cells; type: cell-based, human; conditions: for TrxR activity reduction / inhibition: H522, 24 h treatment, stated for both cell lines; for Mean Diff. TrxR activity vs. veh: H522 lysate, 24 h treatment at 5 μM
Procedure: as §4, §3

[5] = tested on: human NSCLC cell lines with KRAS mutations; test: MTT assay, average across NSCLC cell lines with KRAS mutations; type: cell-based; conditions: 48 h, read-out: IC50 * averaged values
Procedure: as §1, §2, §3

H1792 = test: MTT viability assay, H1792; type: cell-based, human; conditions: mean ± span, 48 h treatment, cell line with KRAS mutation
Procedure: as §1, §2, §3

H661 = test: MTT viability assay, H661; type: cell-based, human; conditions: mean ± span, 48 h treatment, cell line without KRAS mutation
Procedure: as §1, §2, §3

H1993 = test: MTT viability assay, H1993; type: cell-based, human; conditions: mean ± span, 48 h treatment, cell line without KRAS mutation
Procedure: as §1, §2, §3

H1395 = test: MTT viability assay, H1395; type: cell-based, human; conditions: mean ± span, 48 h treatment, cell line without KRAS mutation
Procedure: as §1, §2, §3

Molecule	IC50 (A549) [µM]	IC50 (H460) [µM]	IC50 (H522) [µM]	IC50 (HCC-44) [µM]	TrxR activity reduction / inhibition [2]	Mean Diff. TrxR activity vs. veh ([2]; reading at 25 min) [%]	Mean Diff. TrxR activity vs. veh ([2]; reading at 60 min) [%]	Mean Diff. TrxR activity vs. veh ([2]; reading at 90 min) [%]	Mean Diff. TrxR activity vs. veh ([2]; reading at 110 min) [%]	IC50 (H1355) [µM]	IC50 [3] [µM]	Mean Diff. TrxR activity vs. veh ([4]; reading at 25 min) [%]	Mean Diff. TrxR activity vs. veh ([4]; reading at 60 min) [%]	Mean Diff. TrxR activity vs. veh ([4]; reading at 90 min) [%]	Mean Diff. TrxR activity vs. veh ([4]; reading at 110 min) [%]	IC50 [5] [µM]	IC50 (H1792) [µM]	IC50 (H661) [µM]	IC50 (H1993) [µM]	IC50 (H1395) [µM]	also measured
Cn1cc[n+](C)[c]1[Au-]([Cl])([Cl])[Cl] [Compound 1]	> 100	52 ± 1.2	75 ± 0.89	45 ± 0.25	20–30%	−16.73	−13.1	−26.55	−32.38	41 ± 0.33	52	15.84	−8.894	−20.1	−23.89	62	60 ± 1.4	47 ± 1.1	37 ± 1.3	47 ± 0.4	percent concentration reduction estimated from UV spectra [1]: 4–5%; TrxR activity reduction / inhibition [4]: 20–30%
C[n+]1ccn(Cc2ccccc2)[c]1[Au-]([Cl])([Cl])[Cl] [Compound 2]	56 ± 1.6	65 ± 2.2	53 ± 2.1	26 ± 1.3	20–30%	−5.148	−11.64	−22.67	−30.44	34 ± 1.4	30	3.864	−19.16	−23.38	−31.46	41	24 ± 0.98	45 ± 1.7	6.1 ± 0.76	17 ± 0.8	percent concentration reduction estimated from UV spectra [1]: 4–5%; TrxR activity reduction / inhibition [4]: 20–30%
C[n+]1ccn(Cc2ccccc2)[c]1[Au-][Br] [Compound 4]	19 ± 1	11 ± 1.2	5.3 ± 0.88	14 ± 1.1	–	−3.861	−2.183	−18.13	−21.37	8.1 ± 0.66	9	23.18	7.116	−0.3654	−18.72	14	16 ± 0.94	7 ± 0.81	12 ± 1.03	11 ± 0.88	–
Cn1cc[n+](C)[c]1[Au-]([Br])([Br])[Br] [Compound 5]	49 ± 0.33	> 100	52 ± 0.37	32 ± 1.6	30–40%	−11.58	−29.11	−31.74	−33.68	12 ± 0.72	53	−35.55	−39.68	−41.1	−45.26	59	> 100	42 ± 1.7	70 ± 1.6	49 ± 0.11	stability in solution [1]: least stable in solution; TrxR activity reduction / inhibition [4]: 30–40%
C[n+]1ccn(Cc2ccccc2)[c]1[Au-]([Br])([Br])[Br] [Compound 6]	13 ± 1.03	37 ± 1.8	55 ± 1.9	19 ± 1.4	30–40%	−17.37	−2.183	−31.09	−38.86	59 ± 1.7	37	−31.68	−37.22	−39.82	−46.06	29	15 ± 1.1	26 ± 1.5	5.6 ± 0.76	62 ± 2.4	stability in solution [1]: least stable in solution; TrxR activity reduction / inhibition [4]: 30–40%
[bis-(1,3-dimethyl-imidazoly-2yl)]gold(I) dibromoaurate [Compound 3]	91 ± 1.03	68 ± 0.1	15 ± 1.1	10 ± 1.1	–	−21.88	−4.221	−8.42	−9.068	9.1 ± 1.03	16	−44.05	−47.07	−47.31	−50.17	46	50 ± 1.2	27 ± 1.2	11 ± 0.96	11 ± 0.63	–
